Measured values: PMC6715681, “A high-throughput screen to identify novel synthetic lethal compounds for the treatment of E-cadherin-deficient cells” (Scientific Reports, 2019)
pEC50: −log10 of the molar value. Marks after values point to notes of the source that are not given here.

How the values were obtained:
MCF10A WT cells [1] = experiment: 11-point dose-response screen, high-content imaging (HCI) of Hoechst 33342 nuclei; format: cell-based; settings: Homo sapiens, MCF-10A, 11-point screen
Protocol: (§1) The 11-point dose-response screen evaluated a concentration range from 0.02 µM to 20 µM for both isogenic cell lines in duplicate biological replicates (Fig. 4). One limitation to metabolism-based cellular assays is that a change in read out (fluorescence, luminescence or absorbance) may not necessarily be caused by cell death and could instead result from a cessation of proliferation due to senescence or inhibited mitochondrial respiration. For this reason, a direct measurement of cell counts using cellular imaging of nuclei stained with Hoechst 33342 was also included at the 11-point screening stage. For the CTB 11-point screen all plates had acceptable Z’ values above 0.4, with the second biological replicate having 70% above 0.6 (Fig. 4A). The Z’ values for the high-content imaging (HCI) 11-point screen plates were above 0.4 for MCF10A WT, except one plate from biological replicate two with 0.396 (Fig. 4B). However, for MCF10A CDH1^−/− HCI data, only four plates were above a Z’ of 0.4 and the mean Z’ was 0.32 compared to a mean of 0.51 for MCF10A WT. A further quality metric known as the strictly standardized mean difference (SSMD)[40] is a less conservative approach for QC and a cut-off of >3 is generally used. The mean SSMD value was 7.04 for MCF10A WT and 5.27 for MCF10A CDH1^−/− plates and indicates the MCF10A CDH1^−/− HCI data was acceptable[41]. There was a good correlation between the top hits from the HCI and CTB 11-point screening with an overlap of 31 / 40 for the top 40 compounds selected from the eventual hit selection strategies.
(§2) A direct measurement of cell counts using cellular imaging of nuclei was also included at the 11-point screening stage. Plates were fixed, washed and stained using an ELx405 Select deep well washer (BioTek). Media was first aspirated leaving 10 μL/well, then 4% w/v PFA was added and plates left for 15 minutes at RT. Plates were then washed twice with PBS-T, before aspirating all permeabilization buffer and adding Hoechst 33342 (1 μg/mL final) in PBS. Plates were then stored in the dark at 4 °C, until being imaged on a BD Pathway 855. Two 10x images per well were taken and cell counts enumerated using CellProfiler[48].

MCF10A CDH1^−/− cells [2] = experiment: as above; format: cell-based, human; settings: 11-point screen; for pEC50: Homo sapiens, MCF-10A, HCI
Protocol: as §1, §2

MCF10A WT cells [3] = experiment: Medium-throughput validation in 96-well plates, Hoechst-33342 nuclei counts (CellProfiler); format: cell-based; settings: Homo sapiens, MCF-10A, 96-well validation, at least five concentration points
Protocol: (§3) Cells were seeded into each well of Corning’s black walled, clear bottom 96-well plates with a total volume of 100 μL per well. Edge wells were excluded. Both isogenic cell lines were seeded into the same plate to mitigate plate-to-plate variation. Plates for real-time analysis were transferred to the xCELLigence platform (ACEA Biosciences, USA) or the IncuCyte FLR imaging system (Essen BioScience, USA) as previously described.
(§4) Seventy-two hours post seeding (or 48 hours post compound addition), plates were assayed for cell viability using a one-step cocktail of PFA (0.25% v/v), saponin (0.075% w/v) and Hoechst 33342 (1 μg/ml final) as described previously. CellProfiler was used to enumerate cell counts as previously described.

MCF10A CDH1^−/− cells [4] = experiment: as above; format: cell-based, human; settings: for EC50 ratio (MCF10A WT/MCF10A CDH1^−/−) / pEC50: 96-well validation; for pEC50: Hoechst nuclei counts, at least five concentration points; for Differential at 5 µM (%): 48 h post compound addition
Protocol: as §3, §4

MCF10A CDH1^−/− cells [5] = experiment: IncuCyte real-time live cell imaging (cell confluence); format: cell-based, human; settings: for Greatest SL difference in the slope of the growth trendline, MCF10A CDH1^−/− compared to MCF10A WT: linear growth phase; for Growth rate effect in MCF10A CDH1^−/− cells (in words): all concentrations between 2.5–20 μM, 48 hours
Protocol: (§5) Real-time viability assays were performed on the two lead compounds SLEC-8 and SLEC-11 using the two isogenic MCF10A cell lines. The IncuCyte and xCELLigence assay systems quantify cell growth over the drugging period in real-time, allowing for the assessment of even subtle growth inhibitory effects following compound treatment. The IncuCyte was used in combination with an end-point assay (nuclei counting) to give both live cell imaging and normalized cell counts for each plate.
(§6) Figure 9 IncuCyte validation data for lead compounds 8 and 11. (A) Timeline for the combined live cell imaging and end-point viability assays. Plates were seeded 4,000 cells/well as described in the Methods. (B,C) One hour following compound addition, plates were transferred to the IncuCyte. Three 4x images per well were taken every two hours for 48 hours. An EC80 dose of doxorubicin was used (Supplementary Table 1). Data shown is a representative experiment of three biological replicates. Error bars are SD. The cell confluence v1.5 was calculated using the IncuCyte software. (B) Live cell imaging for SLEC-8. (C) Live cell imaging for SLEC-11. Graphs were created in Excel.
(§7) To calculate growth rates, a trendline was fitted to the linear growth phase of each cell line. The greatest SL difference in the slope of the trendline for SLEC-8 as at 10 μM treatment with 2.0 fold difference for MCF10A CDH1^−/− cells, compared to MCF10A WT. For SLEC-11 the greatest SL difference was at 20 μM, with a 4.0 fold difference in the slope of the trendline for MCF10A CDH1^−/− cells compared to MCF10A WT (data not shown).
as §3

MCF10A WT cells [6] = experiment: as above; format: cell-based, human; settings: 2.5–20 μM, 48 hours
Protocol: as §5, §6, §7, §3

MCF10A CDH1^−/− cells [7] = experiment: xCELLigence real-time impedance assay (cell proliferation index); format: cell-based, human; settings: for SL differential between the two cell lines (in words): xCELLigence real-time assay, SLEC-8 at 10 μM, SLEC-11 at 20 μM
Protocol: (§8) The xCELLigence real-time system quantifies electrical impedance as a measurement of cell viability which is expressed as the cell proliferation index. […] This was due to drug effects and briefly removing plates from the incubator for the addition of compounds and controls. Despite a slower adhesion time for MCF10A CDH1^−/−, consistent with our previous finding[3] the DMSO control treated cells had similar slopes of 0.17 and 0.15 for MCF10A WT and MCF10A CDH1^−/−, respectively.
(§9) Figure 10 Real-time xCELLigence data for lead compounds 8 and 11. (A) Timeline for the real-time cellular assay. Plates were seeded 4,000 cells/well as described in the Methods. (B,C) Data shown is a representative experiment of two biological replicates, performed in 96-well xCELLigence E-plates. Error bars are SD. Measurements were taken every 15 minutes. The cell proliferation index was calculated using the RTCA software. (B) Cells were treated with SLEC-8. (C) Cells were treated with SLEC-11.
as §3

MCF10A WT cells [8] = experiment: as above; format: cell-based, human
Protocol: as §8, §9, §3

[9] = normalized cell counts MCF10A WT – MCF10A CDH1^−/−, 96-well

| SMILES | pEC50 (MCF10A WT cells [1]) | pEC50 (MCF10A CDH1^−/− cells [2]) | pEC50 (MCF10A WT cells [3]) | EC50 ratio (MCF10A WT/MCF10A CDH1^−/−) (MCF10A CDH1^−/− cells [4]) | pEC50 (MCF10A CDH1^−/− cells [4]) | pEC50 (MCF10A CDH1^−/− cells [4]; Homo sapiens, MCF-10A) | Differential at 5 µM (%) (MCF10A CDH1^−/− cells [4]; [9]) | Differential at 5 µM (%) (MCF10A CDH1^−/− cells [4]; normalized cell counts MCF10A WT – MCF10A CDH1^−/−, 96-well, listed as 11) | Greatest SL difference in the slope of the growth trendline, MCF10A CDH1^−/− compared to MCF10A WT (MCF10A CDH1^−/− cells [5]; 20 μM treatment) [fold] | Growth rate effect in MCF10A CDH1^−/− cells (in words) (MCF10A CDH1^−/− cells [5]) | Growth reduction in MCF10A WT cells (in words) (MCF10A WT cells [6]) | SL differential between the two cell lines (in words) (MCF10A CDH1^−/− cells [7]) | Difference in cell proliferation index between compound and DMSO (maximum) (MCF10A CDH1^−/− cells [7]; xCELLigence, 20 μM, 62 hours post seeding) [fold] | Difference in cell proliferation index to DMSO in MCF10A WT cells (in words) (MCF10A WT cells [8]; 20 μM, 62 hours post seeding) | EC50 ratio between MCF10A WT and MCF10A CDH1^−/− cells (MCF10A CDH1^−/− cells [2]; value corresponds to the HCI EC50s of Fig. 5) [fold change] | SL differential at 2.5 μM (MCF10A CDH1^−/− cells [4]; normalized cell counts MCF10A WT – MCF10A CDH1^−/−, 96-well, 2.5 μM) [%] | Differential at 5 µM (%) (MCF10A CDH1^−/− cells [4]; normalized cell counts MCF10A WT – MCF10A CDH1^−/−, 96-well, listed as 8) | Greatest SL difference in the slope of the growth trendline, MCF10A CDH1^−/− compared to MCF10A WT (MCF10A CDH1^−/− cells [5]; 10 μM treatment) [fold] | Decrease in cell proliferation index compared to DMSO (MCF10A CDH1^−/− cells [7]; xCELLigence, 10 μM, 60 hours post seeding) [fold] | Recovery of MCF10A WT cells (in words) (MCF10A WT cells [8]; 10 μM, by 60 hours post seeding) |
| --- | --- | --- | --- | --- | --- | --- | --- | --- | --- | --- | --- | --- | --- | --- | --- | --- | --- | --- | --- | --- |
| COc1ccc2nc(C)cc(NCc3ccc(F)cc3)c2c1 [SLEC-11, N-(4-Fluorobenzyl)-6-methoxy-2-methylquinolin-4-amine] | 4.84 | 5.13 | 4.97 | 1.53 | 5.15 | 5.15 | 20.7 | 20.74* % | 4.0 | dose-dependent growth rate reduction | only observed at the higher concentrations | significant SL differential | 7.9 | no difference | – | – | – | – | – | – |
| CC(O)CNCc1ccc(OCc2ccc(Cl)cc2Cl)cc1 (stereo not drawn) [SLEC-8] | 4.99 | 5.69 | 4.91 | 1.36 | 5.04 | 5.04 | 22.8 | – | – | dose-dependent growth rate reduction | only observed at the higher concentrations | significant SL differential | – | – | 5.03 | 22.0 | 22.79* % | 2.0 | 2.7 | able to fully recover |
